Data as given in patent US20260027068A1, “METHODS OF ADM[…]-KETAMINE” (Perception Neuroscience, Inc., priority 2022, published 2026).
Read-outs that look alike come from different tables or passages of the source.

How the values were obtained:
[1] = Systolic blood pressure (vital signs)
Method: The Investigational Medicinal Product (IMP) R(−)-ketamine hydrochloride in sterile water for intravenous injection was investigated as an […] treatment of TRD. The International Union of Pure and Applied Chemistry (IUPAC) name is of the IMP is (2R)-2-(2-chlorophenyl)-2-(methylamino)cyclohexan-1-one. Subjects received the solution at either 30 mg or 60 mg dose, or a placebo. The IMP or placebo was administered on Day 1 as a single IV infusion via an electronic infusion pump over 40 minutes. The duration of study participation for each subject was up to 29 days including a screening period, a 3-day in-clinic visit, and 2 follow-up visits. 101 subjects were enrolled in approximately 20 study centers in the EU and the US.
Tympanic or temporal temperature, heart rate, blood pressure (SBP/DBP), respiratory rate, and SpO2 were assessed. Blood pressure and pulse measurements will be assessed with a completely automated device while the subject is supine or semi-supine. Manual techniques will be used only if an automated device is not available. Blood pressure and pulse measurements should be preceded by at least 5 minutes of rest for the subject in a quiet setting without distractions (e.g., television, cell phones). An abnormal blood pressure value at screening may be repeated once after 5 minutes of relaxation to determine the subject's eligibility. Blood pressure was recorded using the same arm and position (supine or semi-supine) throughout the study, where possible. Vital signs (to be taken before blood collection for laboratory tests) consisted of 1 pulse and 3 blood pressure measurements (3 consecutive blood pressure readings will be recorded at intervals of at least 1 minute). The average of the 3 blood pressure readings was recorded in the CRF. A pulse oximeter was used to measure peripheral capillary oxygen saturation (SpO2) continuously from pre-dose until 4-hours post-dose. A pulse oximeter was clipped onto the finger or foot of the subject, and light will be sent through the finger or foot and measured on the other side.
In these tables, baseline value is defined as the last non-missing value prior to study drug administration.

rodents = conditions: cited from earlier work
CYP2B6 = target: T1, CYP2B6 (Homo sapiens, UniProt P20813); conditions: in vitro
T1 sequence (P20813 1-491): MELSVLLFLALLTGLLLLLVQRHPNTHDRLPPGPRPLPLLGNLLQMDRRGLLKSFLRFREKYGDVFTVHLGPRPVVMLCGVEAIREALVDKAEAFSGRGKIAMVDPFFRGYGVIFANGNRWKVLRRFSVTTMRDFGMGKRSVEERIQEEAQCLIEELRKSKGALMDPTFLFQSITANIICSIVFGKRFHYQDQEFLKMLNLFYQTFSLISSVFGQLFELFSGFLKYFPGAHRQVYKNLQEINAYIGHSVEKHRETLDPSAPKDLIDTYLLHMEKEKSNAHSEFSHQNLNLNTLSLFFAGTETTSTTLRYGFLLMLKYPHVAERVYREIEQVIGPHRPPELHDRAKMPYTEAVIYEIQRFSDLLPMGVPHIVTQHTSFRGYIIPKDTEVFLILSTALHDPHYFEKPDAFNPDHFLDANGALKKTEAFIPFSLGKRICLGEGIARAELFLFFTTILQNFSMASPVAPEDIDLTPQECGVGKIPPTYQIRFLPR

[2] = Phase 1 single ascending dose plasma pharmacokinetics of 40-minute IV infusion of R(−)-ketamine and its metabolites; conditions: for Tmax: all dose levels 5 mg to 150 mg; for AUC(0-inf) / Cmax / AUC(0-t): iv
Method: This was a Phase 1 randomized, placebo-controlled, double-blind, single dose study conducted at one center. […] The pharmacokinetic (PK) population was 36 subjects, with 12 additional subjects receiving placebo. […] Subjects were male or female healthy subjects, 18 to 65 years of age. […] Cohort 1 was dosed at 5 mg, followed by Cohort 2 at 15 mg, Cohort 3 at 30 mg, Cohort 4 at 60 mg, Cohort 5 at 100 mg, and Cohort 6 at 150 mg R(−)-ketamine. […] In addition to the safety and tolerability data, the study also evaluated the dose-related PK of each 40-minute IV infusion of R(−)-ketamine.
To evaluate the pharmacokinetics of R(−)-ketamine, blood was drawn from subjects for PK analysis at the following sampling times: pre-dose (−30 minutes); and from the start of infusion (5, 10, and 15 minutes [±1 minute], 30 minutes [±5 minutes], 40 minutes [immediately prior to infusion completion], 1, 1.5, 2, and 3 hours [±5 minutes], 4 and 8 hours [±10 minutes], 12 and 24 hours [±15 minutes]).
Plasma PK parameters of R(−)-ketamine and its metabolites (norketamine, 6-hydroxynorketamine, and dehydronorketamine) evaluated on include the following: • Maximum plasma concentration (Cmax), • Time to Cmax (Tmax), • Area under the plasma concentration curve (AUC0-t, AUC0-∞) • Elimination rate constant (λz), • Half-live (t½) • Clearance (CL, P R(−)-ketamine only), • Volume of distribution (Vz, R(−)-ketamine only), and • Metabolite to parent ratios (area under curve [AUC] and Cmax).
The dose proportionality was assessed both visually and statistically using calculated Cmax and AUC values. […] Continuous variables: Descriptive statistics included the number of non-missing values (n), arithmetic mean, standard deviation (SD), median, minimum, and maximum values. […] For PK concentration data, the number of non-missing values, number of below limit of quantification (BLQ) values, arithmetic mean, SD, median, minimum, maximum, coefficient of variation (CV %), geometric mean, and geometric CV (geo CV %) values are presented. For PK parameter data, the number of non-missing values, arithmetic mean, SD, median, minimum, maximum, CV %, geometric mean, and geometric CV (geo CV %) values are presented.
Intravenous administration of allocated blinded study drug (Morning, Day 1) was infused over 40 minutes. Blood collection for plasma PK analysis occurred at infusion 5, 10, 15, 30, 40, 60, and 90 minutes, and 2, 3, 4, 8, and 12 hours after the start of infusion.
Plasma concentrations of R(−)-ketamine and its metabolites norketamine, 6-hydroxynorketamine, and dehydronorketamine were determined using a suitable validated analytical method with a lower limit of quantitation (LOQ) of 1 ng/mL.
The linearity of the increase in exposure with respect to the increasing dose administered was evaluated for Cmax and AUC for R(−)-ketamine and its metabolites (norketamine, 6-hydroxynorketamine and dehydronorketamine). […] The power model was used to estimate the slope parameter and the 90% confidence intervals for the slope.

[3] = both, human, plasma, intravenous

## CN[C@@]1(c2ccccc2Cl)CCCCC1=O.Cl [R(−)-ketamine, (2R)-2-(2-chlorophenyl)-2-(methylamino)cyclohexan-1-one]
[1]; 30 mg
  Subjects with change from baseline systolic blood pressure >40 mmHg, number: 0 n
  Subjects with change from baseline systolic blood pressure >40 mmHg, percent: 0.0%
  Subjects with post-baseline systolic blood pressure >180 mmHg, number: 0 n
  Subjects with post-baseline systolic blood pressure >180 mmHg, percent: 0.0%
[1]; 30 mg, Day 1, 15 minutes
  Systolic blood pressure: Mean: 116.8 mmHg
  Systolic blood pressure: Median: 119.0 mmHg
[1]; 30 mg, Day 1, 40 minutes
  Systolic blood pressure: Mean: 120.1 mmHg
  Systolic blood pressure: Median: 122.0 mmHg
[1]; 30 mg, Day 1, 60 minutes
  Systolic blood pressure: Mean: 117.7 mmHg
  Systolic blood pressure: Median: 119.5 mmHg
[1]; 30 mg, Day 1, 2 hours
  Systolic blood pressure: Mean: 118.7 mmHg
  Systolic blood pressure: Median: 122.0 mmHg
[1]; 30 mg, Day 1, 4 hours
  Systolic blood pressure: Mean: 119.0 mmHg
  Systolic blood pressure: Median: 120.0 mmHg
[1]; 30 mg, Day 1, 6 hours
  Systolic blood pressure: Mean: 118.0 mmHg
  Systolic blood pressure: Median: 120.0 mmHg
[1]; 30 mg, Day 2 - Discharge
  Systolic blood pressure: Mean: 118.0 mmHg
  Systolic blood pressure: Median: 120.0 mmHg
[1]; 30 mg, Day 8
  Systolic blood pressure: Mean: 119.2 mmHg
  Systolic blood pressure: Median: 121.0 mmHg
[1]; 30 mg, Day 15
  Systolic blood pressure: Mean: 123.4 mmHg
  Systolic blood pressure: Median: 122.0 mmHg
[1]; 30 mg, to Day 1, 15 minutes
  Systolic blood pressure: Change from Baseline, Mean: 1.2 mmHg
  Systolic blood pressure: Change from Baseline, Median: −1.0 mmHg
[1]; 30 mg, to Day 1, 40 minutes
  Systolic blood pressure: Change from Baseline, Mean: 2.0 mmHg
  Systolic blood pressure: Change from Baseline, Median: 0.0 mmHg
[1]; 30 mg, to Day 1, 60 minutes
  Systolic blood pressure: Change from Baseline, Mean: 2.4 mmHg
  Systolic blood pressure: Change from Baseline, Median: 2.5 mmHg
[1]; 30 mg, to Day 1, 2 hours
  Systolic blood pressure: Change from Baseline, Mean: 0.6 mmHg
  Systolic blood pressure: Change from Baseline, Median: 0.0 mmHg
[1]; 30 mg, to Day 1, 4 hours
  Systolic blood pressure: Change from Baseline, Mean: 0.9 mmHg
  Systolic blood pressure: Change from Baseline, Median: −1.0 mmHg
[1]; 30 mg, to Day 1, 6 hours
  Systolic blood pressure: Change from Baseline, Mean: −0.1 mmHg
  Systolic blood pressure: Change from Baseline, Median: −2.0 mmHg
[1]; 30 mg, to Day 2 - Discharge
  Systolic blood pressure: Change from Baseline, Mean: −0.1 mmHg
  Systolic blood pressure: Change from Baseline, Median: −1.0 mmHg
[1]; 30 mg, to Day 8
  Systolic blood pressure: Change from Baseline, Mean: 1.2 mmHg
  Systolic blood pressure: Change from Baseline, Median: 1.0 mmHg
[1]; 30 mg, to Day 15
  Systolic blood pressure: Change from Baseline, Mean: 5.2 mmHg
  Systolic blood pressure: Change from Baseline, Median: 3.0 mmHg
[1]; 60 mg
  Subjects with change from baseline systolic blood pressure >40 mmHg, number: 1 n
  Subjects with change from baseline systolic blood pressure >40 mmHg, percent: 2.9%
  Subjects with post-baseline systolic blood pressure >180 mmHg, number: 0 n
  Subjects with post-baseline systolic blood pressure >180 mmHg, percent: 0.0%
[1]; 60 mg, Day 1, 15 minutes
  Systolic blood pressure: Mean: 123.6 mmHg
  Systolic blood pressure: Median: 124.5 mmHg
[1]; 60 mg, Day 1, 40 minutes
  Systolic blood pressure: Mean: 123.0 mmHg
  Systolic blood pressure: Median: 122.0 mmHg
[1]; 60 mg, Day 1, 60 minutes
  Systolic blood pressure: Mean: 123.9 mmHg
  Systolic blood pressure: Median: 124.0 mmHg
[1]; 60 mg, Day 1, 2 hours
  Systolic blood pressure: Mean: 119.0 mmHg
  Systolic blood pressure: Median: 120.0 mmHg
[1]; 60 mg, Day 1, 4 hours
  Systolic blood pressure: Mean: 119.1 mmHg
  Systolic blood pressure: Median: 121.0 mmHg
[1]; 60 mg, Day 1, 6 hours
  Systolic blood pressure: Mean: 119.7 mmHg
  Systolic blood pressure: Median: 119.5 mmHg
[1]; 60 mg, Day 2 - Discharge
  Systolic blood pressure: Mean: 120.8 mmHg
  Systolic blood pressure: Median: 122.0 mmHg
[1]; 60 mg, Day 8
  Systolic blood pressure: Mean: 123.2 mmHg
  Systolic blood pressure: Median: 122.0 mmHg
[1]; 60 mg, Day 15
  Systolic blood pressure: Mean: 120.3 mmHg
  Systolic blood pressure: Median: 121.0 mmHg
[1]; 60 mg, to Day 1, 15 minutes
  Systolic blood pressure: Change from Baseline, Mean: 4.4 mmHg
  Systolic blood pressure: Change from Baseline, Median: 1.5 mmHg
[1]; 60 mg, to Day 1, 40 minutes
  Systolic blood pressure: Change from Baseline, Mean: 4.9 mmHg
  Systolic blood pressure: Change from Baseline, Median: 3.0 mmHg
[1]; 60 mg, to Day 1, 60 minutes
  Systolic blood pressure: Change from Baseline, Mean: 5.3 mmHg
  Systolic blood pressure: Change from Baseline, Median: 5.0 mmHg
[1]; 60 mg, to Day 1, 2 hours
  Systolic blood pressure: Change from Baseline, Mean: 0.9 mmHg
  Systolic blood pressure: Change from Baseline, Median: 1.0 mmHg
[1]; 60 mg, to Day 1, 4 hours
  Systolic blood pressure: Change from Baseline, Mean: 1.0 mmHg
  Systolic blood pressure: Change from Baseline, Median: 0.0 mmHg
[1]; 60 mg, to Day 1, 6 hours
  Systolic blood pressure: Change from Baseline, Mean: 1.4 mmHg
  Systolic blood pressure: Change from Baseline, Median: 2.0 mmHg
[1]; 60 mg, to Day 2 - Discharge
  Systolic blood pressure: Change from Baseline, Mean: 2.7 mmHg
  Systolic blood pressure: Change from Baseline, Median: 1.0 mmHg
[1]; 60 mg, to Day 8
  Systolic blood pressure: Change from Baseline, Mean: 5.0 mmHg
  Systolic blood pressure: Change from Baseline, Median: 2.0 mmHg
[1]; 60 mg, to Day 15
  Systolic blood pressure: Change from Baseline, Mean: 2.1 mmHg
  Systolic blood pressure: Change from Baseline, Median: 0.0 mmHg
rodents; 20 mg/kg
  Conditioned place preference: did not cause conditioned place preference
rodents; 40 mg/kg
  Conditioned place preference: did cause conditioned place preference
CYP2B6
  CYP2B6 inhibition: inhibitor
[2]; after start of infusion, LOQ 1 ng/mL
  Earliest timepoint at which concentrations were quantifiable in all subjects: 5 min
[2]; [3]
  Vd: 345 to 921 L
  clearance: 1280 to 1630 mL/min
  half-life: 184 to 433 min
[2]; both, human, plasma, intravenous, Median plasma Tmax
  Tmax: 40 min
[2]; both, human, plasma, intravenous, Plasma Tmax range
  Tmax: 15 to 40 min
[2]; both, human, plasma, 5 mg
  AUC(0-inf): 64 ng·h/mL
  Cmax: 33.9 ng/mL
[2]; both, human, plasma, 5 mg, Arithmetic mean AUC0-24h, 5 mg R(−)-ketamine IV
  AUC(0-t): 63.5 ng·h/mL
[2]; both, human, plasma, 5 mg, Arithmetic mean AUC0-t, 5 mg R(−)-ketamine IV
  AUC(0-t): 57.5 ng·h/mL
[2]; both, human, plasma, 150 mg
  AUC(0-inf): 1820 ng·h/mL
  Cmax: 780 ng/mL
[2]; both, human, plasma, 150 mg, Arithmetic mean AUC0-24h, 150 mg R(−)-ketamine IV
  AUC(0-t): 1720 ng·h/mL
[2]; both, human, plasma, 150 mg, Arithmetic mean AUC0-t, 150 mg R(−)-ketamine IV
  AUC(0-t): 1720 ng·h/mL
